The compounds below were run against T1, human POLγ 3′-5′ exonuclease activity (Homo sapiens, UniProt P54098) (assay: Exonuclease inhibition assay with human POLγ (SYBR Green I fluorescence)). Conditions: POLγA 1 nM, POLγB 1.3 nM, 5 nM exonuclease template, no dNTPs, 37° C. 2.5 hours.
T1 sequence (P54098 1-1239): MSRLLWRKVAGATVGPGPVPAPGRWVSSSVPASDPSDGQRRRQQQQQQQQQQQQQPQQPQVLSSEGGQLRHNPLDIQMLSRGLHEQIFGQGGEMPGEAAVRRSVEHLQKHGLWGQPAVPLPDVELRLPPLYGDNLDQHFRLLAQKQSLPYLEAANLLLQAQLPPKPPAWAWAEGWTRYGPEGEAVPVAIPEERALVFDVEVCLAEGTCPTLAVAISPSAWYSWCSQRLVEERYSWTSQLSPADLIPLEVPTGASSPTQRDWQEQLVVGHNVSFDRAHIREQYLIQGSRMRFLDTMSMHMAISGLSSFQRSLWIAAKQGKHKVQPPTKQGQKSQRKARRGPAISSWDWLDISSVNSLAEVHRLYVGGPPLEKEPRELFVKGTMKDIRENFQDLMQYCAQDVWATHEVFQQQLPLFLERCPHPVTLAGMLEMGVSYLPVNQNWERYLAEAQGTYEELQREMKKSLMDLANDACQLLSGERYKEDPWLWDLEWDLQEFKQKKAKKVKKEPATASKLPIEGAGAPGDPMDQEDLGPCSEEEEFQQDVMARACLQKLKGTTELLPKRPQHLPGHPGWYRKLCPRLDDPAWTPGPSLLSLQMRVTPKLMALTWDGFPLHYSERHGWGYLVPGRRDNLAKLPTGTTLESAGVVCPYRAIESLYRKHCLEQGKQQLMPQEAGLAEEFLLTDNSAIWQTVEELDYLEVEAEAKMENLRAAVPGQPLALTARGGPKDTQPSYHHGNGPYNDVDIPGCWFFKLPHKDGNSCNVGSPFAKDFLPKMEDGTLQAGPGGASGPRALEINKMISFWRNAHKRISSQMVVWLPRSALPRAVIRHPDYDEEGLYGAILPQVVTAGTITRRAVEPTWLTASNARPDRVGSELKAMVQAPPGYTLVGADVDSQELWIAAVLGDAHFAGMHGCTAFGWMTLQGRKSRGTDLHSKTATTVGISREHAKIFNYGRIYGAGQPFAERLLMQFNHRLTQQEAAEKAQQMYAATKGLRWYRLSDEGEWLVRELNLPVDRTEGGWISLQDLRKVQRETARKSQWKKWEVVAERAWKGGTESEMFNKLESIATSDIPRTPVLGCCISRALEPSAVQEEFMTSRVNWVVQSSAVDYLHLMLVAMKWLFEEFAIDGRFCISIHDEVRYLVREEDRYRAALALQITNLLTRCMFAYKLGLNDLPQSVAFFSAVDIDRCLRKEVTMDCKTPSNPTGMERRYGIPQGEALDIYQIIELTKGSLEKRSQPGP
T1 sequence (Q9UHN1 1-485 partner): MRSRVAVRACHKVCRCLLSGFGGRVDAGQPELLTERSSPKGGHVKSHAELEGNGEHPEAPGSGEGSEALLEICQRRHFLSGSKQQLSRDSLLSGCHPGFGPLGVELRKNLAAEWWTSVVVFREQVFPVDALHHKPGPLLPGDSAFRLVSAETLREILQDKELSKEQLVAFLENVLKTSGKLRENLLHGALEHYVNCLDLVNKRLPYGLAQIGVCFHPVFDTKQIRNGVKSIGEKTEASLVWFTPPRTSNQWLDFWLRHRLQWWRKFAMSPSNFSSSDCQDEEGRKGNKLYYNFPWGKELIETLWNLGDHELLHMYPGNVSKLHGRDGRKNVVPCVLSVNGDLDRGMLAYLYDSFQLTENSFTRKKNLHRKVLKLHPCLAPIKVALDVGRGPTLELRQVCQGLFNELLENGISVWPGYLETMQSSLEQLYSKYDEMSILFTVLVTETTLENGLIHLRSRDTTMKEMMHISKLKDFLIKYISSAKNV
Format: biochemical
Experimental: Exonuclease inhibition assay with human POLγ.
The ability of small molecules to inhibit the 3′-5′ exonuclease activity of POLγ was analyzed in a quantitative fluorescence SYBR Green I assay with fluorescence intensity (FI) readout.
Human POLγ was incubated with a linear, partially double-stranded template containing an 85 base pair double-stranded DNA stretch and a 15 nucleotides long single-stranded 5′-tail (hereafter referred to as the “exonuclease template”). […] When bound to double-stranded DNA, SYBR Green I fluorescence increases by up to 100-fold. In the absence of deoxynucleotide triphosphates (dNTPs), the exonuclease activity of POLγ degrades the 85-mer strand, which leads to the formation of single-stranded DNA (ssDNA) and decreased fluorescent intensity. The assay was performed in a 384-well plate format.
The exonuclease template used was generated by hybridization of a 100 nucleotides long, single-stranded DNA molecule with an inverted dT at the 3′-end (5′-TTTTTTTTTATCCGGGCTCGTTATCTAAGCTGCTCTTGGTAGGCATTGACGTCCATACTGCAAATTCAGCTCTGTGCAGTTAGGCAGGAGTCTACAAGC invT-3′) to an 85 nucleotides long single-stranded DNA molecule (5′-AGCTTGTAGACTCCTGCCTAACTGCACAGAGCTGAATTTGCAGTATGGACGTCAATGCCTACCAGAGCAGCTTAGATAACGAGC-3′), using a Bio-Rad T100 Thermal Cycler. The inverted dT is characterized by a 3′-3′ linkage, which inhibits both degradation of the 3′-5′ exonuclease activity and extension by DNA polymerases.
POLγ is an heterotrimer of one POLγA subunit (harboring exonuclease and DNA polymerase activities) and two accessory POLγB subunits. Proteins used in the exonuclease assay were POLγA (NP_002684) and POLγB (NP_009146).
The protein mixture used in the assays contained POLγA (1 nM), POLγB (1.3 nM, concentration calculated as a dimer), 25 mM Tris-HCl (pH 8.0), 0.1 mg/mL bovine serum albumin, 1 mM Bond-Breaker TCEP solution (pH 7) [Thermo Fisher], 25 mM NaCl, and 0.02% Triton X-100.
The DNA template mixture used in the assay contained 5 nM of the exonuclease template, 25 mM Tris-HCl (pH 8.0), 10 mM MgCl2, 0.1 mg/mL bovine serum albumin, 1 mM Bond-Breaker TCEP solution [Thermo Fisher], and 0.02% Triton X-100.
Microplates with compounds (0.1 μL in each well) to be tested in the assay were prepared from 10 mM compound stocks in 100% DMSO, and equal amounts of DMSO without any compound were added to positive and negative control wells.
The protein mixture containing POLγ was dispensed (5 μL in each well) into compound plates and incubated at 37° C. for 15 minutes to allow compound binding to the POLγ complex. After incubation, 5 μL of the DNA template mixture was dispensed into each well. The plates were incubated at 37° C. for 2.5 hours.
During incubation, a combined stop buffer and detection reagent solution was prepared. The buffer contained 25 mM EDTA (pH 8.0), 0.02% Triton X-100, and SYBR Green I [Invitrogen] diluted 10,000× (for fluorescent readout). EDTA will stop the enzymatic reaction by chelating magnesium ions.
After the 2.5-hour incubation period, the SYBR Green I solution was added (10 μL) to the screening plates and the plates were incubated at room temperature in the dark for 20 minutes before the fluorescent signal was read between […] on a BMG Pherastar microtiter plate reader.
Cc1cc(S(=O)(=O)Nc2cccc(C(=O)N(C)C(C)CO)c2)c(C)cc1Cl (single isomer, unassigned) [Example 14, 3-((4-chloro-2,5-dimethylphenyl)sulfonamido)-N-(1-hydroxypropan-2-yl)-N-methylbenzamide] showed an IC50 of 3 µM.
Cc1ccc(C)c(S(=O)(=O)Nc2cccc(C(=O)N3CCCCC3C#N)c2)c1 (stereo not shown) [Example 2, N-(3-(2-cyanopiperidine-1-carbonyl)phenyl)-2,5-dimethylbenzenesulfonamide] showed an IC50 of 4 µM.
For Cc1ccc(C)c(S(=O)(=O)Nc2cccc(C(=O)N3CCCCC3)c2)c1 [Example 3, 2,5-dimethyl-N-(3-(piperidine-1-carbonyl)phenyl)benzene sulfonamide], the IC50 was 10 µM.
With Cc1ccc(C)c(S(=O)(=O)Nc2cccc(C(=O)NCC3CC3)c2)c1 [Example 4, N-(cyclopropylmethyl)-3-((2,5-dimethylphenyl)sulfonamido)benzamide] the IC50 was 48 µM.
In the case of Cc1ccc(C)c(S(=O)(=O)Nc2cccc(C(=O)N3CCCC[C@H]3C)c2)c1 [Example 5, (R)-2,5-dimethyl-N-(3-(2-methylpiperidine-1-carbonyl)phenyl)benzenesulfonamide], the IC50 is reported as 3 µM.
In the case of Cc1ccc(C)c(S(=O)(=O)Nc2cccc(C(=O)N3CCCC[C@@H]3C)c2)c1 [Example 6, (S)-2,5-dimethyl-N-(3-(2-methylpiperidine-1-carbonyl)phenyl)benzenesulfonamide], the IC50 is reported as 12 µM.
In the case of Cc1ccc(C)c(S(=O)(=O)Nc2cccc(C(=O)N3CCOCC3C#N)c2)c1 (stereo not shown) [Example 7, N-(3-(3-cyanomorpholine-4-carbonyl)phenyl)-2,5-dimethylbenzenesulfonamide], the IC50 is reported as 1 µM.
With Cc1ccc(C)c(S(=O)(=O)Nc2cccc(C(=O)N[C@@H](C)C3CC3)c2)c1 [Example 8, (S)-N-(1-cyclopropylethyl)-3-((2,5-dimethylphenyl)sulfonamido)benzamide] the IC50 was 9 µM.
Cc1cc(S(=O)(=O)Nc2cccc(C(=O)N3CCCC[C@H]3C)c2)c(C)cc1Cl [Example 9, (R)-4-chloro-2,5-dimethyl-N-(3-(2-methylpiperidine-1-carbonyl)phenyl)benzenesulfonamide] showed an IC50 of 2 µM.
Cc1cc(S(=O)(=O)Nc2cccc(C(=O)N3CCC[C@H]3C)c2)c(C)cc1Cl [Example 10, (R)-4-chloro-2,5-dimethyl-N-(3-(2-methylpyrrolidine-1-carbonyl)phenyl)benzenesulfonamide] gave an IC50 of 0.8 µM.
Cc1cc(S(=O)(=O)Nc2cccc(C(=O)NCc3ccccc3)c2)c(C)cc1Cl [Example 11, N-benzyl-3-((4-chloro-2,5-dimethylphenyl)sulfonamido)benzamide] was tested, and the IC50 was > 100 µM.
In the case of Cc1cc(S(=O)(=O)Nc2cccc(C(=O)N(C)C)c2)c(C)cc1Cl [Example 12, 3-((4-chloro-2,5-dimethylphenyl)sulfonamido)-N,N-dimethylbenzamide], the IC50 is reported as 5 µM.
Cc1cc(S(=O)(=O)Nc2cc(F)cc(C(=O)N3CCC[C@H]3C)c2)c(C)cc1Cl [Example 13, (R)-4-chloro-N-(3-fluoro-5-(2-methylpyrrolidine-1-carbonyl)phenyl)-2,5-dimethylbenzenesulfonamide] showed an IC50 of 6 µM.
Cc1cc(S(=O)(=O)Nc2cccc(-c3nccs3)c2)c(C)cc1Cl [Example 16, 4-chloro-2,5-dimethyl-N-(3-(thiazol-2-yl)phenyl)benzenesulfonamide] showed an IC50 of 12 µM.
For Cc1cc(S(=O)(=O)Nc2cccc(-c3ncco3)c2)c(C)cc1Cl [Example 17, 4-chloro-2,5-dimethyl-N-(3-(oxazol-2-yl)phenyl)benzenesulfonamide], the IC50 was > 100 µM.
With Cc1cc(S(=O)(=O)Nc2cccc(-c3ccn(C)n3)c2)c(C)cc1Cl [Example 18, 4-chloro-2,5-dimethyl-N-(3-(1-methyl-1H-pyrazol-3-yl)phenyl)benzenesulfonamide] the IC50 was 81 µM.
With Cc1cc(S(=O)(=O)Nc2cccc(-c3nccn3C)c2)c(C)cc1Cl [Example 19, 4-chloro-2,5-dimethyl-N-(3-(1-methyl-1H-imidazol-2-yl)phenyl)benzenesulfonamide] the IC50 was 8 µM.
For Cc1cc(S(=O)(=O)Nc2ccc3c(c2)CC(=O)N3)c(C)cc1Cl [Example 185, 4-chloro-2,5-dimethyl-N-(2-oxoindolin-5-yl)benzenesulfonamide], the IC50 was 6 µM.
Work on “(R)-2,5-dimethyl-N-(3-(3-methylmorpholine-4-carbonyl)phenyl)benzenesulfonamide [Example 1]” yielded an IC50 of 7 µM.

From patent US20260138961A1, “MODULATORS OF MITOCHONDRIAL DNA REPLICATION” (Pretzel Therapeutics, Inc., priority 2022, published 2026)
